Laboratory results: ChEMBL document CHEMBL1149493, “Benzodiazepine calcitonin gene-related peptide (CGRP) receptor antagonists: optimization of the 4-substituted piperidine” (Bioorg Med Chem Lett, 2006)
pIC50, pKi: −log10 of the molar value. Activity calls are given as the source filed them. No cut-off for these calls is given here.

Key:
[1] = biological target: T1, Calcitonin gene-related peptide type 1 receptor (Homo sapiens, UniProt O60894+Q16602); test: (§1) Displacement of [125I]CGRP from human recombinant CGRP receptor
T1 sequence (Q16602 whole entry, one chain of several): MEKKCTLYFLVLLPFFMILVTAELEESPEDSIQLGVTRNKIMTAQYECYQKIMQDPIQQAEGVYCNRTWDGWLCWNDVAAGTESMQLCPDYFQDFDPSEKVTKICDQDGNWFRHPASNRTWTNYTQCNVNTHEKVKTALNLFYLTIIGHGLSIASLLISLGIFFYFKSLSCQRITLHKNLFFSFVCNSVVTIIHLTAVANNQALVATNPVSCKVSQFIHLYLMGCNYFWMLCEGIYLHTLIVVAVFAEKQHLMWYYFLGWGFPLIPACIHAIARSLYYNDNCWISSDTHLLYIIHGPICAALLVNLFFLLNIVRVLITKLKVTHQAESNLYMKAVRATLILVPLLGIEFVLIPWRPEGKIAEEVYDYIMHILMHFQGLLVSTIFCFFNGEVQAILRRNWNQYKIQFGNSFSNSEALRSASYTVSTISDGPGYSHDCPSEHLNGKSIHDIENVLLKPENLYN

[2] = biological target: T1, Calcitonin gene-related peptide type 1 receptor; test: Activity at CGRP receptor assessed as inhibition of CGRP-stimulated cAMP production; type: functional
[3] = biological target: Calcitonin gene-related peptide type 1 receptor (Homo sapiens) (UniProt Q16602); test: as §1
Chain of Calcitonin gene-related peptide type 1 receptor (Homo sapiens) (Q16602 whole entry): as the sequence (Q16602 whole entry, one chain of several) above

SMILES: O=C(N[C@@H]1N=C(c2ccccc2)c2ccccc2N(CC(F)(F)F)C1=O)N1CCC(n2c(=O)[nH]c3cnccc32)CC1
- pKi [1]: 6.16
- pIC50 [2]: 5.86

SMILES: O=C(N[C@@H]1N=C(c2ccccc2)c2ccccc2N(CC(F)(F)F)C1=O)N1CCC(N2Cc3cccnc3NC2=O)CC1
- pKi [1]: 6.53
- pIC50 [2]: 6.21

SMILES: O=C(N[C@@H]1N=C(c2ccccc2)c2ccccc2N(CC(F)(F)F)C1=O)N1CCC(N2C(=O)NCc3ccccc32)CC1
- Activity [3]: inactive

SMILES: O=C(N[C@@H]1N=C(c2ccccc2)c2ccccc2N(CC(F)(F)F)C1=O)N1CCC(n2nc(-c3ccccc3)[nH]c2=O)CC1
- pKi [1]: 7.59
- pIC50 [2]: 7.00

SMILES: O=C(N[C@@H]1N=C(c2ccccc2)c2ccccc2N(CC(F)(F)F)C1=O)N1CCC(N2CC(c3ccccc3)NC2=O)CC1 (stereo partly specified)
- pKi [1]: 6.47
- pIC50 [2]: 6.10

SMILES: N#Cc1cn(C2CCN(C(=O)N[C@@H]3N=C(c4ccccc4)c4ccccc4N(CC(F)(F)F)C3=O)CC2)c(=O)[nH]1
- pKi [1]: 6.24
- pIC50 [2]: 6.00

SMILES: O=C(N[C@@H]1N=C(c2ccccc2)c2ccccc2N(CC(F)(F)F)C1=O)N1CCC(n2c(O)nc3cc(Cl)ccc32)CC1
- pKi [1]: < 5.00

SMILES: O=C(N[C@@H]1N=C(c2ccccc2)c2ccccc2N(CC(F)(F)F)C1=O)N1CCC(N2CC(c3ccccn3)NC2=O)CC1 (stereo partly specified)
- pKi [1]: 5.70

SMILES: O=C(N[C@@H]1N=C(c2ccccc2)c2ccccc2N(CC(F)(F)F)C1=O)N1CCC(n2cc(-c3ccccn3)[nH]c2=O)CC1
- pKi [1]: 7.57
- pIC50 [2]: 7.43

SMILES: O=C(N[C@@H]1N=C(c2ccccc2)c2ccccc2N(CC(F)(F)F)C1=O)N1CCC(n2c(=O)[nH]c3ncccc32)CC1
- pKi [1]: 7.64
- pIC50 [2]: 7.31

SMILES: O=C(N[C@@H]1N=C(c2ccccc2)c2ccccc2N(CC(F)(F)F)C1=O)N1CCC(n2cc[nH]c2=O)CC1
- pKi [1]: 6.23
- pIC50 [2]: 6.17

SMILES: O=C(N[C@@H]1N=C(c2ccccc2)c2ccccc2N(CC(F)(F)F)C1=O)N1CCC(n2cc(-c3ccc(OC(F)F)cc3)nc2O)CC1
- pKi [1]: 7.72
- pIC50 [2]: 7.13

SMILES: COc1cccc(-c2cn(C3CCN(C(=O)N[C@@H]4N=C(c5ccccc5)c5ccccc5N(CC(F)(F)F)C4=O)CC3)c(O)n2)c1
- pKi [1]: 8.96
- pIC50 [2]: 8.29

SMILES: O=C(N[C@@H]1N=C(c2ccccc2)c2ccccc2N(CC(F)(F)F)C1=O)N1CCC(N2CC(c3ccncc3)NC2=O)CC1 (stereo partly specified)
- pKi [1]: 6.14
- pIC50 [2]: 6.09

SMILES: CS(=O)(=O)c1ccc2c(c1)[nH]c(=O)n2C1CCN(C(=O)N[C@@H]2N=C(c3ccccc3)c3ccccc3N(CC(F)(F)F)C2=O)CC1
- pKi [1]: 6.59
- pIC50 [2]: 6.66

SMILES: O=C(N[C@@H]1N=C(c2ccccc2)c2ccccc2N(CC(F)(F)F)C1=O)N1CCC(N2Cc3ncccc3NC2=O)CC1
- pKi [1]: 6.02
- pIC50 [2]: 5.74

SMILES: O=C(N[C@@H]1N=C(c2ccccc2)c2ccccc2N(CC(F)(F)F)C1=O)N1CCC(N2Cc3ccccc3NC2=O)CC1
- pKi [1]: 7.32
- pIC50 [2]: 7.47

SMILES: O=C(N[C@@H]1N=C(c2ccccc2)c2ccccc2N(CC(F)(F)F)C1=O)N1CCC(n2cc(CO)[nH]c2=O)CC1
- pKi [1]: 4.70

SMILES: O=C(N[C@@H]1N=C(c2ccccc2)c2ccccc2N(CC(F)(F)F)C1=O)N1CCC(n2c(O)nc3cc(F)ccc32)CC1
- pKi [1]: 5.55

SMILES: O=C(O)c1cn(C2CCN(C(=O)N[C@@H]3N=C(c4ccccc4)c4ccccc4N(CC(F)(F)F)C3=O)CC2)c(=O)[nH]1
- pKi [1]: 5.54

SMILES: CC(C)c1cn(C2CCN(C(=O)N[C@@H]3N=C(c4ccccc4)c4ccccc4N(CC(F)(F)F)C3=O)CC2)c(=O)[nH]1
- pKi [1]: 5.27

SMILES: NC(=O)c1ccc2c(c1)[nH]c(=O)n2C1CCN(C(=O)N[C@@H]2N=C(c3ccccc3)c3ccccc3N(CC(F)(F)F)C2=O)CC1
- pKi [1]: 5.98

SMILES: O=C(N[C@@H]1N=C(c2ccccc2)c2ccccc2N(CC(F)(F)F)C1=O)N1CCC(n2cc(-c3ccc(F)cc3)[nH]c2=O)CC1
- pKi [1]: 7.96
- pIC50 [2]: 6.97

SMILES: O=C(N[C@@H]1N=C(c2ccccc2)c2ccccc2N(CC(F)(F)F)C1=O)N1CCC(n2cc(-c3cccc(F)c3)nc2O)CC1
- pKi [1]: 7.96
- pIC50 [2]: 7.34

SMILES: O=C(N[C@@H]1N=C(c2ccccc2)c2ccccc2N(CC(F)(F)F)C1=O)N1CCC(n2c(=O)[nH]c3nccnc32)CC1
- pKi [1]: 6.81
- pIC50 [2]: 6.54

SMILES: O=C(N[C@@H]1N=C(c2ccccc2)c2ccccc2N(CC(F)(F)F)C1=O)N1CCC(n2cc(Cc3ccccc3)[nH]c2=O)CC1
- pKi [1]: 5.95
- pIC50 [2]: 6.35

SMILES: O=C(N[C@@H]1N=C(c2ccccc2)c2ccccc2N(CC(F)(F)F)C1=O)N1CCC(n2c(=O)[nH]c3c4ccccc4ccc32)CC1
- pKi [1]: 7.57
- pIC50 [2]: 6.43

SMILES: O=C(N[C@@H]1N=C(c2ccccc2)c2ccccc2N(CC(F)(F)F)C1=O)N1CCC(n2c(O)nc3cccc(Cl)c32)CC1
- pKi [1]: 5.19

SMILES: Cc1cccc2nc(O)n(C3CCN(C(=O)N[C@@H]4N=C(c5ccccc5)c5ccccc5N(CC(F)(F)F)C4=O)CC3)c12
- pKi [1]: 4.70

SMILES: O=C(N[C@@H]1N=C(c2ccccc2)c2ccccc2N(CC(F)(F)F)C1=O)N1CCC(n2c(O)nc3c2ccc[n+]3[O-])CC1
- pKi [1]: 6.00

SMILES: O=C(N[C@@H]1N=C(c2ccccc2)c2ccccc2N(CC(F)(F)F)C1=O)N1CCC(n2cc(-c3ccc(OC(F)(F)F)cc3)[nH]c2=O)CC1
- pKi [1]: 6.98
- pIC50 [2]: 6.37

SMILES: O=C(N[C@@H]1N=C(c2ccccc2)c2ccccc2N(CC(F)(F)F)C1=O)N1CCC(n2c(=O)[nH]c3ccccc32)CC1
- pKi [1]: 5.65

SMILES: O=C(N[C@@H]1N=C(c2ccccc2)c2ccccc2N(CC(F)(F)F)C1=O)N1CCC(n2c(O)nc3cc(C(F)(F)F)ccc32)CC1
- pKi [1]: 5.42

SMILES: O=C(N[C@@H]1N=C(c2ccccc2)c2ccccc2N(CC(F)(F)F)C1=O)N1CCC(n2c(=O)[nH]c3ccncc32)CC1
- pKi [1]: 6.07
- pIC50 [2]: 5.85

SMILES: O=C(N[C@@H]1N=C(c2ccccc2)c2ccccc2N(CC(F)(F)F)C1=O)N1CCC(n2c(=O)[nH]c3ncncc32)CC1
- pKi [1]: 7.29
- pIC50 [2]: 6.37

SMILES: COC(=O)c1cn(C2CCN(C(=O)N[C@@H]3N=C(c4ccccc4)c4ccccc4N(CC(F)(F)F)C3=O)CC2)c(=O)[nH]1
- pKi [1]: 6.96
- pIC50 [2]: 6.81

SMILES: COc1ccc(-c2cn(C3CCN(C(=O)N[C@@H]4N=C(c5ccccc5)c5ccccc5N(CC(F)(F)F)C4=O)CC3)c(=O)[nH]2)cc1
- pKi [1]: 6.69
- pIC50 [2]: 6.71

SMILES: O=C(N[C@@H]1N=C(c2ccccc2)c2ccccc2N(CC(F)(F)F)C1=O)N1CCC(N2Cc3cnccc3NC2=O)CC1
- pKi [1]: 6.49
- pIC50 [2]: 6.20

SMILES: O=C(N[C@@H]1N=C(c2ccccc2)c2ccccc2N(CC(F)(F)F)C1=O)N1CCC(n2c(=O)[nH]c3ccc(F)cc32)CC1
- pKi [1]: 6.01
- pIC50 [2]: 5.86

SMILES: O=C(N[C@@H]1N=C(c2ccccc2)c2ccccc2N(CC(F)(F)F)C1=O)N1CCC(N2Cc3ccncc3NC2=O)CC1
- pKi [1]: 6.46
- pIC50 [2]: 6.65

SMILES: Cc1ccc(-c2cn(C3CCN(C(=O)N[C@@H]4N=C(c5ccccc5)c5ccccc5N(CC(F)(F)F)C4=O)CC3)c(=O)[nH]2)cc1
- pKi [1]: 8.20
- pIC50 [2]: 7.07

SMILES: O=C(N[C@@H]1N=C(c2ccccc2)c2ccccc2N(CC(F)(F)F)C1=O)N1CCC(n2c(=O)[nH]c3cccnc32)CC1
- pKi [1]: 6.37
- pIC50 [2]: 5.95

SMILES: Cc1cccc2c1nc(O)n2C1CCN(C(=O)N[C@@H]2N=C(c3ccccc3)c3ccccc3N(CC(F)(F)F)C2=O)CC1
- pKi [1]: 5.16

SMILES: O=C1CN(C2CCN(C(=O)N[C@@H]3N=C(c4ccccc4)c4ccccc4N(CC(F)(F)F)C3=O)CC2)C(=O)N1
- pKi [1]: 7.54
- pIC50 [2]: 7.00

SMILES: Cc1ccc2c(c1)[nH]c(=O)n2C1CCN(C(=O)N[C@@H]2N=C(c3ccccc3)c3ccccc3N(CC(F)(F)F)C2=O)CC1
- pKi [1]: 5.21

SMILES: O=C(O)c1ccc2c(c1)[nH]c(=O)n2C1CCN(C(=O)N[C@@H]2N=C(c3ccccc3)c3ccccc3N(CC(F)(F)F)C2=O)CC1
- pKi [1]: 6.09
- pIC50 [2]: 6.15

SMILES: O=C(N[C@@H]1N=C(c2ccccc2)c2ccccc2N(CC(F)(F)F)C1=O)N1CCC(n2c(O)nc3c(Cl)cccc32)CC1
- pKi [1]: 6.84
- pIC50 [2]: 6.35

SMILES: O=C(N[C@@H]1N=C(c2ccccc2)c2ccccc2N(CC(F)(F)F)C1=O)N1CCC(n2c(O)nc3c(F)cccc32)CC1
- pKi [1]: 6.43
- pIC50 [2]: 6.43

SMILES: O=C(N[C@@H]1N=C(c2ccccc2)c2ccccc2N(CC(F)(F)F)C1=O)N1CCC(N2CC(c3cccnc3)NC2=O)CC1 (stereo partly specified)
- pKi [1]: 5.98

SMILES: O=C(N[C@@H]1N=C(c2ccccc2)c2ccccc2N(CC(F)(F)F)C1=O)N1CCC(N2CCNC2=O)CC1
- pKi [1]: 6.07
- pIC50 [2]: 5.51

SMILES: O=C(N[C@@H]1N=C(c2ccccc2)c2ccccc2N(CC(F)(F)F)C1=O)N1CCC(n2cc(-c3ccccc3)[nH]c2=O)CC1
- pKi [1]: 7.96
- pIC50 [2]: 7.85
